Measured values from patent US11401278B2, “Macrocyclic indole derivatives” (The Broad Institute, Inc., priority 2017, dated 2022).
Where two headings read alike, the source gives them in different places.

Columns and labels:
SUDHL5 = assay: Induction of cytotoxicity (Assay 6), SUDHL5; conditions: read-out: Cytotox SUDHL5 [M] (median) IC50, CellTiter-Glo, 5 hours, SUDHL5
MCL-1 = MCL-1 (Homo sapiens (Human), UniProt Q07820, K194A/K197A/R201A); assay: Protein-protein interaction assay MCL-1/Noxa BH3 peptide (MCL-1 assay, TR-FRET); format: binding; conditions: MBP-MCL-1 / Noxa BH3 peptide, median
Chain of MCL-1 (Q07820 whole entry K194A/K197A/R201A, looked up): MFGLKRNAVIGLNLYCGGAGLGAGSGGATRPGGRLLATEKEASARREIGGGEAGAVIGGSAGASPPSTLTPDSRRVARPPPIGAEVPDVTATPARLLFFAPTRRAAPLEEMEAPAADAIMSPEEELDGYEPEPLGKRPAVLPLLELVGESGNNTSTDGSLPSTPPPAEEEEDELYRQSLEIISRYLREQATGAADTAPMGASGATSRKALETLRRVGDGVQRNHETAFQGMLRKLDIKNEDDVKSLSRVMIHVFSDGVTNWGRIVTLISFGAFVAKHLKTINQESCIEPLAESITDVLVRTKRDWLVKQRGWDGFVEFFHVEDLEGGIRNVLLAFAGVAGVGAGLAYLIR
Method in brief: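 TR-FRET competition assay read at 665/620 nm, with a Noxa BH3 tracer peptide (1 nM) plus Eu-cryptate anti-MBP and XL665-streptavidin. Compounds (0.1 nM-20 μM, duplicates) were pre-equilibrated 10 min at 22° C with 1 nM MBP-MCL-1 (173-329) in Tris pH 7, NaCl, KF, DTT buffer, then incubated 1 h at 22° C and overnight at 4° C. IC50 came from 4-parameter regression.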

SUDHL10 = assay: Induction of caspase-3/7 activity (Assay 4), SUDHL10; format: cell-based; conditions: caspase-3/7 induction, median
Method in brief: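 DLBCL cells were exposed to compounds for 3 hours at 37 °C, then caspase-3/7 activation was read with Caspase-Glo 3/7 reagent. After subtracting medium-only background, EC50s were derived with fixed C0=1 and the reference compound's maximal induction as plateau.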

IC50 (MCL-1) [nM]	EC50 (SUDHL10; Homo sapiens, SU-DHL10, 3 h) [µM]	SMILES	IC50 (SUDHL5; Homo sapiens, SU-DHL-5, 5 h) [M]	IC50 (SUDHL5) [M]	EC50 (SUDHL10; 3 hours) [µM]
3.4	2.3	CCc1c2c(nn1C)CN(C)S(=O)(=O)CCCn1c(C(=O)O)c(CCCOc3ccc(F)c4ccccc34)c3ccc(Cl)c-2c31 [Example 24, (rac)-13-Chloro-12-ethyl-1-(34(4-fluoronaphthalen-1-yl)oxy)propyl)-8,11-dimethyl-4,5,6,8,9,11-hexahydropyrazolo[3′,4′:4,5][1,2,8]thiadiazacycloundecino[6,7,8-hi]indole-2-carboxylic acid 7,7-dioxide]	1.3e-06	–	–
5.1	5.6	Cc1c2c(nn1C)CN(C)S(=O)(=O)CCCn1c(C(=O)O)c(CCCOc3ccc(F)c4ccccc34)c3ccc(F)c-2c31 [Example 30, (rac)-13-Fluoro-1-(34(4-fluoronaphthalen-1-yl)oxy)propyl)-8,11,12-trimethyl-5,6,9,11-tetrahydro-4H,8H-pyrazolo[3′,4′:4,5][1]thia[2,8]diazacycloundecino[6,7,8-hi]indole-2-carboxylic acid 7,7-dioxide]	1.7e-06	–	–
6.2	14	CCc1c2c(nn1C)CN(CCN1CCOCC1)S(=O)(=O)CCCn1c(C(=O)O)c(CCCOc3cccc4cc(F)ccc34)c3ccc(Cl)c-2c31 [Example 77, (rac)-13-chloro-12-ethyl-1-(3-((6-fluoronaphthalen-1-yl)oxy)propyl)-11-methyl-8-(2-morpholinoethyl)-5,6,9,11-tetrahydro-4H,8H-pyrazolo[3′,4′:4,5][1]thia[2,8]diazacycloundecino[6,7,8-hi]indole-2-carboxylic acid 7,7-dioxide]	6.7e-06	–	–

SMILES	IC50 (MCL-1) [nM]	EC50 (SUDHL10; Homo sapiens, SU-DHL10, 3 h) [µM]	IC50 (SUDHL5; Homo sapiens, SU-DHL-5, 5 h) [M]	IC50 (SUDHL5) [M]	EC50 (SUDHL10; 3 hours) [µM]
Cc1c2c(nn1C)CN(C1CC1)S(=O)(=O)CCCn1c(C(=O)O)c(CCCOc3cccc4ccccc34)c3ccc(Cl)c-2c31 [Example 40, (rac)-4-chloro-14-cyclopropyl-2,3-dimethyl-7-[3-(1-naphthyloxy)propyl]-11,12,14,15-tetrahydro-2H,10H-pyrazolo[3′,4′:4,5][1,2,8]thiadiazacycloundecino[6,7,8-hi]indole-8-carboxylic acid 13,13-dioxide]	2.1	–	–	2e-06	3.3
